Laboratory results published in publication PMC5564600 (Oncotarget, 2017).

How the values were obtained:
Test in all cases: biochemical
Type in all cases: binding
panel of 442 kinases [1] = target: T1, panel of 442 kinases (Homo sapiens, UniProt O96017); conditions: CHEK2; for remaining activity at 1 µM: read-out: % of control at 1 µM
T1 construct: purchased Ambit Biosciences (scanMAXX KINOMEscan)

panel of 442 kinases [2] = target: T2, panel of 442 kinases (Homo sapiens, UniProt P53779); conditions: kinase JNK3; for remaining activity at 1 µM: read-out: % of control at 1 µM
T2 construct: purchased Ambit Biosciences (scanMAXX KINOMEscan)

panel of 442 kinases [3] = target: T3, panel of 442 kinases (Homo sapiens, UniProt Q13976); conditions: kinase PRKG1; for remaining activity at 1 µM: read-out: PRKG1 (% of control at 1 µM)
T3 construct: purchased Ambit Biosciences (scanMAXX KINOMEscan)
T3 sequence (Q13976 1-671): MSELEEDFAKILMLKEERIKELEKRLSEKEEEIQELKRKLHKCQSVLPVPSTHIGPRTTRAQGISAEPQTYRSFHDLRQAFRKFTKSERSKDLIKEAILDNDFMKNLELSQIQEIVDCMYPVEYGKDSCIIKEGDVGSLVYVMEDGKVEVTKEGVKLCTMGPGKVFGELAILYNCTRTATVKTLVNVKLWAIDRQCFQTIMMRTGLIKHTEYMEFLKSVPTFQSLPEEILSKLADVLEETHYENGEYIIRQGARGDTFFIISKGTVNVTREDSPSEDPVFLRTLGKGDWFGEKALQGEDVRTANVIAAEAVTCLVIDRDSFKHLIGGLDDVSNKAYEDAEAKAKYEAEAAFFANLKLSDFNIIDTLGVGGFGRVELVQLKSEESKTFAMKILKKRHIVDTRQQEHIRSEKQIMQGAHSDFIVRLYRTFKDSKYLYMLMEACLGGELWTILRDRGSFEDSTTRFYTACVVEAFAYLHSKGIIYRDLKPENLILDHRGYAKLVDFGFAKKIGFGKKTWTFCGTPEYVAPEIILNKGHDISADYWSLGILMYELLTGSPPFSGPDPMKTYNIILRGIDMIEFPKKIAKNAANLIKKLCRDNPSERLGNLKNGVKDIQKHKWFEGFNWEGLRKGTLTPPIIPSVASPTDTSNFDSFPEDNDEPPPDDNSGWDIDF

panel of 442 kinases [4] = target: T4, panel of 442 kinases (Homo sapiens, UniProt P36896); conditions: ACVR1B; for remaining activity at 1 µM: read-out: % of control at 1 µM
T4 construct: purchased Ambit Biosciences (scanMAXX KINOMEscan)
T4 sequence (P36896 24-505): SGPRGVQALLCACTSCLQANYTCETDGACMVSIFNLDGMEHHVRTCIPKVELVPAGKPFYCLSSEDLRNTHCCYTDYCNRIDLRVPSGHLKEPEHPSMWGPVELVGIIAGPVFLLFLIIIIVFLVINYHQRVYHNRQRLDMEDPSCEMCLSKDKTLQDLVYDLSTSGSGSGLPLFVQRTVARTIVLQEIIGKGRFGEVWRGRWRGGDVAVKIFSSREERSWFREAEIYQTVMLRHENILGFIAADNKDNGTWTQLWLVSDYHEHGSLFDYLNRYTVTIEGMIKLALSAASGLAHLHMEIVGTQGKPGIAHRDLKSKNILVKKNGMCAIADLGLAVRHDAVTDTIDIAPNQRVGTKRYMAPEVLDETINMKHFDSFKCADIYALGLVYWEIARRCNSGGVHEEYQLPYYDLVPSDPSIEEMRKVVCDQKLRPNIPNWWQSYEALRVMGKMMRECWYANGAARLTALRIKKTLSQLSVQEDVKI

panel of 442 kinases [5] = target: T5, panel of 442 kinases (Homo sapiens, UniProt Q99755); conditions: kinase PIP5K1A; for remaining activity at 1 µM: read-out: % of control at 1 µM
T5 construct: purchased Ambit Biosciences (scanMAXX KINOMEscan)

panel of 442 kinases [6] = target: T6, panel of 442 kinases (Homo sapiens, UniProt P42681); conditions: kinase TXK; for remaining activity at 1 µM: read-out: TXK (% of control at 1 µM)
T6 construct: purchased Ambit Biosciences (scanMAXX KINOMEscan)
T6 sequence (P42681 1-527): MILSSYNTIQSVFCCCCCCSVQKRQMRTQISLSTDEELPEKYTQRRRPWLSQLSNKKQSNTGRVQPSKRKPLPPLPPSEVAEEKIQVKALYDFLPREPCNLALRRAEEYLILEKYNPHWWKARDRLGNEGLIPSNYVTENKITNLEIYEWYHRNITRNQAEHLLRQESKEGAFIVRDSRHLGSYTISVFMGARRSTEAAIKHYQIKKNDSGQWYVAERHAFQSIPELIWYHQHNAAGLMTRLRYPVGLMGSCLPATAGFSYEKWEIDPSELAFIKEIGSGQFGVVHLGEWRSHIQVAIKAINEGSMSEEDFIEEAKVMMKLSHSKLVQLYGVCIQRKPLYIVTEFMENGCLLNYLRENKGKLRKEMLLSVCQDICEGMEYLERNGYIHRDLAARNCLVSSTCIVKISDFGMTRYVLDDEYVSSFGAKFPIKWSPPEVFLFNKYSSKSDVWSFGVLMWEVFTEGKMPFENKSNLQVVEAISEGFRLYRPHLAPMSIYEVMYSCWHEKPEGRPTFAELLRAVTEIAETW

panel of 442 kinases [7] = target: T7, panel of 442 kinases (Homo sapiens, UniProt P23443); conditions: kinase S6K1; for remaining activity at 1 µM: read-out: S6K1 (% of control at 1 µM)
T7 construct: purchased Ambit Biosciences (scanMAXX KINOMEscan)

panel of 442 kinases [8] = target: T8, panel of 442 kinases (Homo sapiens, UniProt Q6P3R8); conditions: kinase NEK5; for remaining activity at 1 µM: read-out: % of control at 1 µM
T8 construct: purchased Ambit Biosciences (scanMAXX KINOMEscan)
T8 sequence (Q6P3R8 1-708): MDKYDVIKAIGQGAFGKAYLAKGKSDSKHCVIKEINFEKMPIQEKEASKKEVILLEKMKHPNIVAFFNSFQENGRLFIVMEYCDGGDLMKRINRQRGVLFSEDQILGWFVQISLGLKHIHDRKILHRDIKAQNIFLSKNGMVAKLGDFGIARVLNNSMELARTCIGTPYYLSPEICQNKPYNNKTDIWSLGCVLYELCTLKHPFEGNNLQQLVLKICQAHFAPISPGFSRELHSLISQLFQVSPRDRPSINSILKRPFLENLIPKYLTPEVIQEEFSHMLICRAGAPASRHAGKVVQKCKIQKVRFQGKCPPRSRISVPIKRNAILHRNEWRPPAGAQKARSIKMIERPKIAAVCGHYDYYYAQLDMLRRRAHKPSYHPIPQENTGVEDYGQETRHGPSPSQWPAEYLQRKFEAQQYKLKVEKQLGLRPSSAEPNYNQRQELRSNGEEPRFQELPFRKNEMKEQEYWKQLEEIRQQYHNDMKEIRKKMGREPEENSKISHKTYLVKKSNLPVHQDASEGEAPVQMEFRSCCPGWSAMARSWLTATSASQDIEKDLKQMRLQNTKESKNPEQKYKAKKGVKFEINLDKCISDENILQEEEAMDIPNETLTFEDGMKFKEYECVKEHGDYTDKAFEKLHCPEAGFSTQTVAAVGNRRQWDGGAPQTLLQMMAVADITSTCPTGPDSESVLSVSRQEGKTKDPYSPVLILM

[9] = 10 µM, read-out: % of control at 10 µM

T1 sequence (O96017 whole entry): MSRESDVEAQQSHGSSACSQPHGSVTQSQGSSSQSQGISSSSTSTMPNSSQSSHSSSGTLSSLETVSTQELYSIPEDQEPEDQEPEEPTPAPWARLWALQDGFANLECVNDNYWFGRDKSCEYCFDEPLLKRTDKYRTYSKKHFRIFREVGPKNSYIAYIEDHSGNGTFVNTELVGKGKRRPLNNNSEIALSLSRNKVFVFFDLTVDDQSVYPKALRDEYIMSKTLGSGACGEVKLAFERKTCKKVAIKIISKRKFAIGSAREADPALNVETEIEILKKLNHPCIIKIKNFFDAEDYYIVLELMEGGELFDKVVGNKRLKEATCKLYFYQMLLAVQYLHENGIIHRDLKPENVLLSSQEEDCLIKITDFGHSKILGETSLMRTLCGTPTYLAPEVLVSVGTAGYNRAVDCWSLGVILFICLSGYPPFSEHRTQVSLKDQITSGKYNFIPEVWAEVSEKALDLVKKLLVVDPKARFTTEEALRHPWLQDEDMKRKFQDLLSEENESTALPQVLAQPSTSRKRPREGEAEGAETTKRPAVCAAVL
T5 sequence (Q99755 whole entry): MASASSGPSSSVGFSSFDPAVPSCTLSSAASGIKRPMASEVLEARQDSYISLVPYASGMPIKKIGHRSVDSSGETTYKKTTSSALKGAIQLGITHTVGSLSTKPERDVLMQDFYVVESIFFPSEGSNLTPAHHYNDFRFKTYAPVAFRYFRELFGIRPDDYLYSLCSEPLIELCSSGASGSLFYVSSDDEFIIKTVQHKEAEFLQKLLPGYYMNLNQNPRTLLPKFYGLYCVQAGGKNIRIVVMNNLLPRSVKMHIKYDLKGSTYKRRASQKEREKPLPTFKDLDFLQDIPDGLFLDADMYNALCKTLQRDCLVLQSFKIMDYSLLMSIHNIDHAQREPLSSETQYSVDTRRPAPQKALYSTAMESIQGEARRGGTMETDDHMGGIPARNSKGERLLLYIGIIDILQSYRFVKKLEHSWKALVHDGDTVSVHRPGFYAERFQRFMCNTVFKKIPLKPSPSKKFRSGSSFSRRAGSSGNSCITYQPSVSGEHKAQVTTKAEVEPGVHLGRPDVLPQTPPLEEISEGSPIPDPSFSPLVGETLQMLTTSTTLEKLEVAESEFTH
T2 sequence (P53779 whole entry): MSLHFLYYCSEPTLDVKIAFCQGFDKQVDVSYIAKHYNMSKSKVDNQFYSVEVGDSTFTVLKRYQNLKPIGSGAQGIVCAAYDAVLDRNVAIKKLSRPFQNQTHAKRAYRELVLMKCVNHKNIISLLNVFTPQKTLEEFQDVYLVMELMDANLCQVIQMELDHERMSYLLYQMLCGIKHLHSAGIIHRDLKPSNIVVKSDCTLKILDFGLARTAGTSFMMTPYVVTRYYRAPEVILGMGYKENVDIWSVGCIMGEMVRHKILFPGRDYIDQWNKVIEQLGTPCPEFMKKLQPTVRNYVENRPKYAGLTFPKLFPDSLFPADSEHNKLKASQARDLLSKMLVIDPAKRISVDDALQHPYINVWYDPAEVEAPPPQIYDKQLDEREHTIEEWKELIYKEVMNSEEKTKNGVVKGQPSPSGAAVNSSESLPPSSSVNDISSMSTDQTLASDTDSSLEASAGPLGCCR
T7 sequence (P23443 whole entry): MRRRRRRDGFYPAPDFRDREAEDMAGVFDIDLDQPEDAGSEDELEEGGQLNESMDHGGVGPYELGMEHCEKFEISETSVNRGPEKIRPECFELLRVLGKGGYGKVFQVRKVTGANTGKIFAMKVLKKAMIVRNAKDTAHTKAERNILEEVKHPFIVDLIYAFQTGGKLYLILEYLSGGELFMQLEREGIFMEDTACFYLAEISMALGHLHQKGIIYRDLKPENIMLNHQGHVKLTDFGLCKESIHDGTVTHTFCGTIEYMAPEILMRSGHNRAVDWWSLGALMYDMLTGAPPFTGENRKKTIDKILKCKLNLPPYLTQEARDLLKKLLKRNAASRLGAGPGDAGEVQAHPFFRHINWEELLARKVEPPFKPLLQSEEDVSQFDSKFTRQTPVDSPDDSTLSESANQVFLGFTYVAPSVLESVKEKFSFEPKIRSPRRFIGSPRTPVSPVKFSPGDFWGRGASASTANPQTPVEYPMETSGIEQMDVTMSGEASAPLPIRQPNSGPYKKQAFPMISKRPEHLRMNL

| Compound | remaining activity at 1 µM (panel of 442 kinases [1]) | remaining activity at 10 µM (panel of 442 kinases [1]; [9]) | remaining activity at 1 µM (panel of 442 kinases [2]) | remaining activity at 10 µM (panel of 442 kinases [2]; [9]) | remaining activity at 1 µM (panel of 442 kinases [3]) | remaining activity at 10 µM (panel of 442 kinases [3]; 10 µM, read-out: PRKG1 (% of control at 10 µM)) | remaining activity at 1 µM (panel of 442 kinases [4]) | remaining activity at 10 µM (panel of 442 kinases [4]; [9]) | remaining activity at 1 µM (panel of 442 kinases [5]) | remaining activity at 10 µM (panel of 442 kinases [5]; [9]) | remaining activity at 1 µM (panel of 442 kinases [6]) | remaining activity at 10 µM (panel of 442 kinases [6]; 10 µM, read-out: TXK (% of control at 10 µM)) | remaining activity at 1 µM (panel of 442 kinases [7]) | remaining activity at 10 µM (panel of 442 kinases [7]; 10 µM, read-out: S6K1 (% of control at 10 µM)) | remaining activity at 1 µM (panel of 442 kinases [8]) | remaining activity at 10 µM (panel of 442 kinases [8]; [9]) |
| --- | --- | --- | --- | --- | --- | --- | --- | --- | --- | --- | --- | --- | --- | --- | --- | --- |
| Nc1cc(C(F)(F)F)c(-c2cc(N3CCOCC3)nc(N3CCOCC3)n2)cn1 [Buparlisib] | 93% | 100% | 100% | 100% | 77% | 100% | 87% | 83% | 100% | 100% | 98% | 89% | 88% | 99% | 100% | 88% |
| Cn1c(=O)n(-c2ccc(C(C)(C)C#N)cc2)c2c3cc(-c4cnc5ccccc5c4)ccc3ncc21 [Dactolisib, 2-methyl-2-[4-(3-methyl-2-oxo-8-quinolin-3-yl-2,3-dihydroimidazo[4,5-c]quinolin-1-yl)-phenyl] propionitrile] | – | – | 100% | – | 95% | – | 100% | – | 59% | – | 100% | – | – | – | 62% | – |
| COc1ncc(-c2ccc3nccc(-c4ccnnc4)c3c2)cc1NS(=O)(=O)c1ccc(F)cc1F [Omipalisib] | 100% | – | 90% | – | 100% | – | 100% | – | 100% | – | 82% | – | 100% | – | 100% | – |
| FC(F)c1nc2ccccc2n1-c1nc(N2CCOCC2)nc(N2CCOCC2)n1 [ZSTK474, 2-(difluoromethyl)-1-[4,6-di(4-morpholinyl)-1,3,5-triazin-2-yl]-1H-benzimidazole] | 92% | – | 100% | – | 100% | – | 60% | – | 100% | – | 83% | – | 91% | – | 89% | – |
